Test results reported in patent US9751837B2, “Kinase inhibitors” (RESPIVERT LIMITED, priority 2014, dated 2017).
Converted amounts (≈) assume the structure as drawn. Where a name gives a salt, the structure may show the parent alone. Read-outs that look alike come from different tables or passages of the source.

Assay: Solubility in fasted-state simulated colonic fluid (FaSSCoF) at pH 6.5
Assay type: physicochemical
Conditions: for solubility thermodynamic at 24 h: 25 °C, pH 6.5, fassgf or other biorelevant, thermodynamic from solid
Procedure: The solubilities of compounds of the invention in FaSSCoF at pH 6.5 are determined using a modification of a previously-reported procedure (Vertzoni, M., et al. Pharm. Res. 2010, 27, 2187-2196). In place of the bile salt extract employed in the original procedure (which extract is no longer available), the modified procedure uses a mixture of sodium taurochlorate (0.15 g), glycocholic acid (0.15 g), ursodeoxycholic acid (0.05 g), cholic acid (0.05 g), and glycodeoxycholic acid (0.05 g). These five bile acids are ground together with a mortar and pestle to produce a fine white powder that is incorporated into the FaSSCoF, as outlined below.
Tris(hydroxymethyl)aminomethane (Tris; 0.275 g) and maleic acid (0.44 g) are dissolved in water (35 mL) to give a solution whose pH is adjusted to 6.5 by treatment with 0.5M NaOH (ca. 12 mL). The solution is then made up to 50 mL with water. A portion of this Tris/maleate buffer solution (ca. 25 mL) is added to a 0.5 L round-bottomed flask, before being treated with 0.00565 g of the bile acid mixture described above. Solutions of phosphatidylcholine (0.0111 g) in DCM (0.15 mL) and palmitic acid (0.0013 g) in DCM (0.15 mL) are added, then the organic solvent is evaporated off under reduced pressure at 40° C. until a clear solution, with no perceptible DCM odour, is achieved. The volume of the evaporated solution is adjusted to 50 mL by addition of the remainder of Tris/maleate buffer, then BSA (0.115 g) is added, before being dissolved by gentle agitation.
Test compounds are suspended in the pH 6.5 FaSSCoF medium to give a maximum final concentration of 2-10 mg/mL. The suspensions are equilibrated at 25° C. for 24 h, before being filtered through a glass fibre C filter. The filtrates are then diluted as appropriate for injection and quantification by HPLC with reference to a standard. Different volumes of the standard, diluted and undiluted sample solutions are injected and the solubilities are calculated using the peak areas determined by integration of the peak found at the same retention time as the principal peak in the standard injection.

[1] = pH 6.5 FaSSCoF Solubility (mg/mL) Run 1
[2] = pH 6.5 FaSSCoF Solubility (mg/mL) Run 2

| SMILES | solubility thermodynamic at 24 h [1] | solubility thermodynamic at 24 h [2] | pH 6.5 FaSSCoF Solubility (mg/mL) Run 1 (24 h, pH 6.5) | solubility thermodynamic at 24 h (FaSSCoF pH 6.5, 25° C., 24 h, Run 1, read-out: pH 6.5 FaSSCoF Solubility (mg/mL) Run 1) | solubility thermodynamic at 24 h (FaSSCoF pH 6.5, 25° C., 24 h, Run 2, read-out: pH 6.5 FaSSCoF Solubility (mg/mL) Run 2) |
| --- | --- | --- | --- | --- | --- |
| COc1cc(Nc2cc(Oc3ccc(NC(=O)Nc4cc(C(C)(C)C)cc(NS(C)(=O)=O)c4OC)c4ccccc34)ccn2)ccc1C(=O)NC[C@@H]1O[C@H](CO)[C@@H](O)[C@H](O)[C@H]1O [17(co), 4-((4-((4-(3-(5-(tert-Butyl)-2-methoxy-3-(methylsulfonamido)phenyl)ureido)naphthalen-1-yl)oxy)pyridin-2-yl)amino)-2-methoxy-N-(((2S,3R,4R,5S,6R)-3,4,5-trihydroxy-6-(hydroxymethyl)tetrahydro-2H-pyran-2-yl)methyl)benzamide] | – | – | – | 0.005 mg/mL (≈ 5.71 µM) | 0.006 mg/mL (≈ 6.86 µM) |
| COc1cc(Nc2cc(Oc3ccc(NC(=O)Nc4cc(C(C)(C)C)cc(NS(C)(=O)=O)c4OC)c4ccccc34)ccn2)ccc1C(=O)NCCOCCOCCOP(=O)(O)O [19 (ammonium salt), 2-(2-(2-(4-((4-((4-(3-(5-(tert-Butyl)-2-methoxy-3-(methylsulfonamido)phenyl)ureido)-naphthalen-1-yl)oxy)pyridin-2-yl)amino)-2-methoxybenzamido)ethoxy)ethoxy)ethyl dihydrogen phosphate] | 0.946 mg/mL | 0.881 mg/mL | – | – | – |
| COc1cc(Nc2cc(Oc3ccc(NC(=O)Nc4cc(C(C)(C)C)cc(NS(C)(=O)=O)c4OC)c4ccccc34)ccn2)ccc1C(=O)NCCOCCOCCOP(=O)(O)O [19 (sodium salt), 2-(2-(2-(4-((4-((4-(3-(5-(tert-Butyl)-2-methoxy-3-(methylsulfonamido)phenyl)ureido)-naphthalen-1-yl)oxy)pyridin-2-yl)amino)-2-methoxybenzamido)ethoxy)ethoxy)ethyl dihydrogen phosphate] | – | – | >4.7 mg/mL | – | – |
| COc1cc(Nc2cc(Oc3ccc(NC(=O)Nc4cc(C(C)(C)C)cc(NS(C)(=O)=O)c4OC)c4ccccc34)ccn2)cc(OC)c1C(=O)NCCOCCOCCOP(=O)(O)O [47 (sodium salt), 2-(2-(2-(4-((4-((4-(3-(5-(tert-butyl)-2-methoxy-3-(methylsulfonamido)phenyl)ureido)-naphthalen-1-yl)oxy)pyridin-2-yl)amino)-2,6-dimethoxybenzamido)ethoxy)ethoxy)ethyl dihydrogen phosphate] | > 1.9 mg/mL | > 2 mg/mL | – | – | – |

More lines, main results first:

| solubility thermodynamic at 24 h [1] | solubility thermodynamic at 24 h [2] | pH 6.5 FaSSCoF Solubility (mg/mL) Run 1 (24 h, pH 6.5) | SMILES | solubility thermodynamic at 24 h (FaSSCoF pH 6.5, 25° C., 24 h, Run 1, read-out: pH 6.5 FaSSCoF Solubility (mg/mL) Run 1) | solubility thermodynamic at 24 h (FaSSCoF pH 6.5, 25° C., 24 h, Run 2, read-out: pH 6.5 FaSSCoF Solubility (mg/mL) Run 2) |
| --- | --- | --- | --- | --- | --- |
| 0.001 mg/mL | 0.001 mg/mL | – | COc1cc(Nc2cc(Oc3ccc(NC(=O)Nc4cc(C(C)(C)C)cc(NS(C)(=O)=O)c4OC)c4ccccc34)ccn2)ccc1C(=O)NCCCCCCC(=O)O [34 (hydrochloride salt), 7-(4-((4-((4-(3-(5-(tert-Butyl)-2-methoxy-3-(methylsulfonamido)phenyl)ureido)naphthalen-1-yl)oxy)pyridin-2-yl)amino)-2-methoxybenzamido)heptanoic acid, hydrochloride salt] | – | – |
| > 3.5 mg/mL | > 4.2 mg/mL | – | COc1cc(Nc2cc(Oc3ccc(NC(=O)Nc4cc(C(C)(C)C)cc(NS(C)(=O)=O)c4OC)c4ccccc34)ccn2)ccc1C(=O)NCCOP(=O)(O)O [35 (sodium salt), 2-(4-((4-((4-(3-(5-(tert-Butyl)-2-methoxy-3-(methylsulfonamido)phenyl)ureido)naphthalen-1-yl)oxy)pyridin-2-yl)amino)-2-methoxybenzamido)ethyl dihydrogen phosphate] | – | – |
| 0.02 mg/mL | 0.02 mg/mL | – | COc1c(NC(=O)Nc2ccc(Oc3ccnc(Nc4ccc(P(C)(=O)O)c(N(C)C)c4)c3)c3ccccc23)cc(C(C)(C)C)cc1NS(C)(=O)=O [68 (sodium salt)] | – | – |
| > 2.8 mg/mL | > 2.8 mg/mL | – | COc1cc(Nc2cc(Oc3ccc(NC(=O)Nc4cc(C(C)(C)C)cc(NS(C)(=O)=O)c4OC)c4ccccc34)ccn2)ccc1CP(C)(=O)O [70 (sodium salt)] | – | – |
